Experiments:
[1] = tested on: Staphylococcus aureus ATCC 6538 and Escherichia coli ATCC 15225; assay: Bacteriostatic MIC of release agents (modified standard MIC protocol, tube growth then streak onto TSA plate); assay type: cell-based; settings: upper bacteriostatic concentration limit of release agent; no initial growth in solution but growth after swabbing onto growth media plate
[2] = tested on: Staphylococcus aureus ATCC 6538 and Escherichia coli ATCC 15225; assay: as above; assay type: cell-based; settings: lower bacteriostatic limit (bacteriostatic MIC): no growth in tube, growth on TSA plate
Description: Release agents for use in the described soaps and hard surface cleaners are those materials that can coat all or part of a microbe or spore wall, but not penetrate the cellular or spore wall, rendering the microbe unable to infect skin or reproduce at the time of application. Not only does the release agent coat the microbe, it also coats skin. Because the microbe coating and skin coating have similar charges, the microbe is repelled from the skin surface into the soap layer. After rinsing the soap, the material is disrupted and releases, allowing regrowth of the microbe. […] However, when the solution is swabbed onto a growth media plate, polymer disruption and release occur, allowing the microbe to resume growth. […] A series of compounds were tested to determine whether microbes exposed to these compositions and rinsed off were still viable to regrow. The standard MIC protocol (Internal NTC Microbiology Lab Method: MB-025) was followed for this work with some modifications. The organisms used were Staphylococcus aureus ATCC® 6538™ and Escherichia coli ATCC® 15225™ (94 TFM). All organisms were purchased from Microbiologics® and grown in the lab on Trypticase Soy Agar (TSA) at 35° C. The organisms were washed off of the agar into 0.1% peptone water and visually matched to a McFarland 0.5 Standard (equal to […]). Ten-fold serial dilutions were prepared for all chemicals tested in Mueller-Hinton II Broth (MH Broth). An initial 1:10 dilution in MH Broth was made and all subsequent dilutions were prepared by removing 1 mL from the previous dilution and transferring to a sterile MH Broth tube. For the initial screening, 1:10 serial dilutions were prepared through 1:1,000,000. One mL of the bacterial solution was added to each dilution tube and vortexed to mix. […] For subsequent round(s) of testing, the parts per million (ppm) of chemical was calculated and dilution tubes were prepared to bracket the ppm of growth/no-growth seen during the first round of testing. Each tube was prepared by adding in the calculated amount of MH Broth and test substance. The inoculation and incubation procedure was followed as stated above. […] For the second round of samples, each tube with no growth was streaked onto a Trypticase Soy Agar (TSA) plate to identify if the organism was still present in the tube but unable to grow in the presence of the chemical. All TSA plates were incubated for 18±4 hours at 37° C. and then observed for growth/no-growth.

Row | Compound | Upper Limit from 1 min Exposure [1] | Lower Limit from 24-hour growth (%) [2]
1 | CCCCCCCCOC(=O)CC(C(=O)OCCCCCCCC)S(=O)(=O)[O-].[Na+] (stereo not shown) [Dioctyl sulfosuccinate sodium salt] | 5.0 | 5.0%
2 | CCCCCCCCCCCC(=O)NCCC[N+](C)(C)CC(=O)[O-] [Lauramidopropyle betaine] | 4.0 | 0.1%
3 | Cocamidopropyl betaine | 27.0 | 1.0%
4 | Cocamidopropyl hydroxy sultaine | 45.0 | 0.5%
5 | Disodium Cocamphodiacetate | 36.0 | 2.0%

From US20220054384A1, “MICROBIOSTATIC SOAP THAT REDUCES THE TRANSMISSION OF MICROBES” (GPCP IP Holdings LLC, priority 2018, published 2022)
